From ChEMBL document CHEMBL1909294, “Translating clinical findings into knowledge in drug safety evaluation--drug induced liver injury prediction system (DILIps)” (PLoS Comput Biol, 2011)

What was measured:
Hepatotoxicity [1] = system: Hepatotoxicity;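 on HepSE bilirubinemia: bilirubinemia hepatic side effect score drawn from the DILIps training data, a prediction system for drug-induced liver injury; call rule not given here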;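 on HepSE cholecystitis: Cholecystitis-related hepatic side effect score drawn from the DILIps (drug-induced liver injury prediction) training data set; call rule not given here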;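 on HepSE cholelithiasis: hepatic side effect score for cholelithiasis, drawn from the DILIps training data for predicting drug-induced liver injury; call rule not given here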;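 on HepSE cirrhosis: cirrhosis hepatic side effect score taken from the DILIps (drug-induced liver injury prediction) training set; call rule not given here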;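 on HepSE elevated liver function tests: hepatic side effect score for raised liver function tests, as recorded in the DILIps training set used for predicting drug-induced liver injury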; on HepSE hepatic failure: call rule not given here;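 on HepSE hepatomegaly: hepatic side effect score for hepatomegaly, taken from the training set of the DILIps drug-induced liver injury prediction system; call rule not given here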
Hepatotoxicity [2] = system: Hepatotoxicity; remark: listed apart in the source;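 on HepSE bilirubinemia: bilirubinemia hepatic side effect score drawn from the DILIps training data, a prediction system for drug-induced liver injury; call rule not given here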;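 on HepSE cholecystitis: Cholecystitis-related hepatic side effect score drawn from the DILIps (drug-induced liver injury prediction) training data set; call rule not given here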;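 on HepSE cholelithiasis: hepatic side effect score for cholelithiasis, drawn from the DILIps training data for predicting drug-induced liver injury; call rule not given here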;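 on HepSE cirrhosis: cirrhosis hepatic side effect score taken from the DILIps (drug-induced liver injury prediction) training set; call rule not given here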;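 on HepSE elevated liver function tests: hepatic side effect score for raised liver function tests, as recorded in the DILIps training set used for predicting drug-induced liver injury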; on HepSE hepatic failure: call rule not given here;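 on HepSE hepatomegaly: hepatic side effect score for hepatomegaly, taken from the training set of the DILIps drug-induced liver injury prediction system; call rule not given here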
Hepatotoxicity [3] = system: Hepatotoxicity; remark: listed apart in the source;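 on HepSE bilirubinemia: bilirubinemia hepatic side effect score drawn from the DILIps training data, a prediction system for drug-induced liver injury; call rule not given here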;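 on HepSE cholecystitis: Cholecystitis-related hepatic side effect score drawn from the DILIps (drug-induced liver injury prediction) training data set; call rule not given here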;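 on HepSE cholelithiasis: hepatic side effect score for cholelithiasis, drawn from the DILIps training data for predicting drug-induced liver injury; call rule not given here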;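 on HepSE cirrhosis: cirrhosis hepatic side effect score taken from the DILIps (drug-induced liver injury prediction) training set; call rule not given here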;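 on HepSE elevated liver function tests: hepatic side effect score for raised liver function tests, as recorded in the DILIps training set used for predicting drug-induced liver injury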; on HepSE hepatic failure: call rule not given here
Hepatotoxicity [4] = system: Hepatotoxicity; remark: listed apart in the source;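 on HepSE bilirubinemia: bilirubinemia hepatic side effect score drawn from the DILIps training data, a prediction system for drug-induced liver injury; call rule not given here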;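 on HepSE cholecystitis: Cholecystitis-related hepatic side effect score drawn from the DILIps (drug-induced liver injury prediction) training data set; call rule not given here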;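 on HepSE cholelithiasis: hepatic side effect score for cholelithiasis, drawn from the DILIps training data for predicting drug-induced liver injury; call rule not given here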;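 on HepSE cirrhosis: cirrhosis hepatic side effect score taken from the DILIps (drug-induced liver injury prediction) training set; call rule not given here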;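 on HepSE elevated liver function tests: hepatic side effect score for raised liver function tests, as recorded in the DILIps training set used for predicting drug-induced liver injury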; on HepSE hepatic failure: call rule not given here
Hepatotoxicity [5] = system: Hepatotoxicity; remark: listed apart in the source; on HepSE hepatic failure: call rule not given here
Hepatotoxicity [6] = system: Hepatotoxicity; remark: listed apart in the source; on HepSE hepatic failure: call rule not given here
Hepatotoxicity [7] = system: Hepatotoxicity; remark: listed apart in the source
Hepatotoxicity [8] = system: Hepatotoxicity; remark: listed apart in the source
Hepatotoxicity [9] = system: Hepatotoxicity; remark: listed apart in the source
Hepatotoxicity [10] = system: Hepatotoxicity; remark: listed apart in the source
Hepatotoxicity [11] = system: Hepatotoxicity; remark: listed apart in the source
Hepatotoxicity [12] = system: Hepatotoxicity; remark: listed apart in the source
Hepatotoxicity [13] = system: Hepatotoxicity; remark: listed apart in the source
Hepatotoxicity [14] = system: Hepatotoxicity; remark: listed apart in the source

Compound	HepSE_bilirubinemia (Hepatotoxicity [1])	HepSE_cholecystitis (Hepatotoxicity [2])	HepSE_cholelithiasis (Hepatotoxicity [3])	HepSE_cirrhosis (Hepatotoxicity [4])	HepSE_elevated liver function tests (Hepatotoxicity [5])	HepSE_hepatic failure (Hepatotoxicity [6])	HepSE_hepatic necrosis (Hepatotoxicity [7])	HepSE_hepatitis (Hepatotoxicity [8])	HepSE_hepatomegaly (Hepatotoxicity [9])	HepSE_jaundice (Hepatotoxicity [10])	HepSE_liver disease (Hepatotoxicity [11])	HepSE_liver fatty (Hepatotoxicity [12])	HepSE_liver function tests abnormal (Hepatotoxicity [13])	HepSE_Combined Scores (Hepatotoxicity [14])	other results
CC1(C)O[C@@H]2C[C@H]3[C@@H]4C[C@H](F)C5=CC(=O)CC[C@]5(C)[C@H]4[C@@H](O)C[C@]3(C)[C@]2(C(=O)CO)O1 [FLURANDRENOLIDE]	0	0	0	0	0	0	0	0	0	0	0	0	0	0	–
CCN(CC)CCN1C(=O)CN=C(c2ccccc2F)c2cc(Cl)ccc21 [FLURAZEPAM]	0	0	0	0	0	0	0	0	0	0	0	0	0	0	–
CC(C(=O)O)c1ccc(-c2ccccc2)c(F)c1 (stereo not drawn) [FLURBIPROFEN]	0	1	0	0	0	1	0	1	0	1	0	0	0	4	–
CC(C)C(=O)Nc1ccc([N+](=O)[O-])c(C(F)(F)F)c1 [FLUTAMIDE]	0	0	0	0	0	0	1	1	0	1	0	0	0	3	–
C[C@@H]1C[C@H]2[C@@H]3C[C@H](F)C4=CC(=O)C=C[C@]4(C)[C@@]3(F)[C@@H](O)C[C@]2(C)[C@@]1(O)C(=O)SCF [FLUTICASONE]	0	1	0	0	0	0	0	0	0	0	0	0	0	1	–
CC(C)n1c(/C=C/C(O)CC(O)CC(=O)O)c(-c2ccc(F)cc2)c2ccccc21 (stereo not drawn) [FLUVASTATIN]	–	–	–	–	–	–	–	–	–	–	–	–	–	–	HepSE_bilirubinemia (Hepatotoxicity [1]; Liver): 0; HepSE_cholecystitis (Hepatotoxicity [2]; Liver): 0; HepSE_cholelithiasis (Hepatotoxicity [3]; Liver): 0; HepSE_cirrhosis (Hepatotoxicity [4]; Liver): 1; HepSE_elevated liver function tests (Hepatotoxicity [5]; Liver): 0; HepSE_hepatic failure (Hepatotoxicity [6]; Liver): 0; HepSE_hepatic necrosis (Hepatotoxicity [7]; Liver): 1; HepSE_hepatitis (Hepatotoxicity [8]; Liver): 1; HepSE_hepatomegaly (Hepatotoxicity [9]; Liver): 0; HepSE_jaundice (Hepatotoxicity [10]; Liver): 1; HepSE_liver disease (Hepatotoxicity [11]; Liver): 0; HepSE_liver fatty (Hepatotoxicity [12]; Liver): 0; HepSE_liver function tests abnormal (Hepatotoxicity [13]; Liver): 0; HepSE_Combined Scores (Hepatotoxicity [14]; Liver): 4
COCCCC/C(=N\OCCN)c1ccc(C(F)(F)F)cc1 [FLUVOXAMINE]	0	1	1	0	0	0	0	1	0	1	0	0	1	5	–
